Experimental findings from patent US20230271956A1, “AMIDE DERIVATIVES” (Merck Patent GmbH, priority 2020, published 2023) are described below.

By IC50 is commonly meant the concentration at which inhibition is half-maximal.

One data set concerns CHO-K1 cells. Nature of the data set: Micronucleus assay (MNT) in vitro. Type of data set: cell-based. Also noted: key: A: negative, putative negative (micronuclei detected beyond threshold of 60% cyctotoxicity); B: positive. The following applies: 24 hrs treatment, 0.2 µM to 100 µM. How it is done: The in vitro MNT assay is performed in CHO-K1 cells due to their stable and welI-characterized karyotype, high sensitivity and suitability for a high content imaging approach. They have a basal spontaneous micronucleus frequency of 3-4%.
24 hrs after plating CHO-K1 cells are treated with test compounds for 24 hrs (in duplicates; fixed concentration ranges from 0.2 µM to 100 µM in 2-fold dilution steps). After a medium change cells are incubated for 24 hrs with Cytochalasin B to block cytokinesis and are then fixed and nuclei / micronuclei visualized with a DNA stain. Images are acquired with the Molecular Devices high content imagers IXU or IXM and are analyzed with the dedicated MetaXpress software micronucleus module. Criteria for scoring of micronuclei (MN) are the following: • diameter of the MN should be less than ⅓ of the main nucleus • MN should be separated from or marginally overlap with main nucleus (= no blebs) • MN should have similar staining as the main nucleus At least 1000 binucleated cells are evaluated per treatment replicate. Mitomycin C is used as reference stimulator of micronucleus formation. Cytotoxicity is evaluated in parallel and defined by comparing total nuclei count in compound-treated samples to neutral control samples treated with vehicle only (1% DMSO) (100% cytotoxicity means all cells are dead or lost).
A test compound is regarded as POSITIVE if generation of micronuclei and exhibition of less than 60% cytotoxicity at the same concentration can be observed.
Compounds are scored only in the soluble concentration range. Experimental data of the compounds shown in Table 1 in the MNT assay are shown in Table 2 below and classified in the following groups: […]

In the next data set the target is T1, ACSS2 (Homo sapiens, UniProt Q9NR19).
T1 construct: endogenous fatty acid synthesis activity in the human HCT-15 cancer cell line; endogenous in cells; host or cells: HCT-15
In words: Cellular assay of 14C acetate incorporation into histones (IC50 ACSS2 cellular histone). In kind it is cell-based. The following applies: HCT-15 cells. The gist of the method:
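Human HCT-15 cells preincubated 1 h with compound (0.25% DMSO final), then pulsed 3 h with 14C-acetate. Histones were acid-extracted (0.2 M HCl, overnight, 4° C) after Triton lysis in sodium-butyrate buffer; incorporated 14C counted by liquid scintillation (CPM) to give IC50.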

T1 sequence (Q9NR19 whole entry): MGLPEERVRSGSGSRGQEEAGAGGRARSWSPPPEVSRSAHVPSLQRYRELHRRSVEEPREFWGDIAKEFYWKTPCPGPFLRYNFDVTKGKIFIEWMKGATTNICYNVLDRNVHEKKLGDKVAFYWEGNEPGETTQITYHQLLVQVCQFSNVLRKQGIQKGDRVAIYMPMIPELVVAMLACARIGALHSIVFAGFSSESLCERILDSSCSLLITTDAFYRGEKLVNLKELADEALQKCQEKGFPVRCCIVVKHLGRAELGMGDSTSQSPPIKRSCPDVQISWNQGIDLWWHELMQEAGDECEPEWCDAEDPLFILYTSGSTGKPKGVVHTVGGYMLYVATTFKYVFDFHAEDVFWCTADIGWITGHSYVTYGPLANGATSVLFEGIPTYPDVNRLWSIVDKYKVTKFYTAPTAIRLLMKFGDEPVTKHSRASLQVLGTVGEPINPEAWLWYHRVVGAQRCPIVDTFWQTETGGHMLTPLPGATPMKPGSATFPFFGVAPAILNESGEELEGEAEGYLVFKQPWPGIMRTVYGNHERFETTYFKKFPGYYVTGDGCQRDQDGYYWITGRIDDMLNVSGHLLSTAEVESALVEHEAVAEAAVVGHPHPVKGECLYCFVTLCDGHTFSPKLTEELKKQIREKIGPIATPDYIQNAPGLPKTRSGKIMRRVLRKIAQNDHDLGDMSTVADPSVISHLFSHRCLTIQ

For `CCn1cnc(NC(=O)c2cc3c(nc2OC)nc(C(O)(c2ccccc2F)c2ccccc2F)n3CC)n1` [Compound 102, 2-[bis(2-fluorophenyl)(hydroxy)methyl]-1-ethyl-N-(1-ethyl-1H-1,2,4-triazol-3-yl)-5-methoxy-1H-imidazo[4,5-b]pyridine-6-carboxamide], the MNT result in the data set with CHO-K1 cells is listed as “A”. The compound further came in with an IC50 against ACSS2 of 0.01 to 1 nM.
The like results for `CCc1c(C(O)(c2ccccc2)c2ccccn2)nc2cc(OC)c(C(=O)Nc3ncn(CC)n3)cn12` (racemic) [Compound 16, 3-Ethyl-2-(hydroxy-phenyl-pyridin-2-yl-methyl)-7-methoxy-imidazo[1,2-a]pyridine-6-carboxylic acid (1-ethyl-1H-[1,2,4]triazol-3-yl)-amide] were, in that order, “A” and 1 to 10 nM.
Taken in the same sequence, the figures for `CCc1c(C(O)(c2ccccc2)c2ccccc2)nc2cc(OC)c(C(=O)Nc3cnn(CC)c3)cn12` [Compound 23, 3-Ethyl-2-(hydroxy-diphenyl-methyl)-7-methoxy-imidazo[1,2-a]pyridine-6-carboxylic acid (1-ethyl-1H-pyrazol-4-yl)-amide] were “A” and 1 to 10 nM.
In the case of `CCc1c(C(O)(c2ccccc2)c2ccccc2)nn2cc(OC)c(C(=O)Nc3cnn(CC)c3)cc12` [Compound 8, 3-Ethyl-2-(hydroxy-diphenyl-methyl)-6-methoxy-pyrazolo[1,5-a]pyridine-5-carboxylic acid (1-ethyl-1H-pyrazol-4-yl)-amide], the MNT entry in the data set with CHO-K1 cells is reported as “A”. The IC50 on ACSS2 is 1 to 10 nM.
Taken in the same sequence, the figures for `CCc1c(C(O)(c2ccccc2)c2ccccc2)nn2ccc(C(=O)Nc3cnn(CC)c3)cc12` [Compound 10, 3-Ethyl-2-(hydroxy-diphenyl-methyl)-pyrazolo[1,5-a]pyridine-5-carboxylic acid (1-ethyl-1H-pyrazol-4-yl)-amide] were “A” and 10 to 100 nM.
The like results for `CCc1c(C(O)(c2ccccc2F)c2ccccc2F)nn2ccc(C(=O)Nc3ncn(CC)n3)cc12` [Compound 5, 2-[Bis-(2-fluoro-phenyl)-hydroxy-methyl]-3-ethyl-pyrazolo[1,5-a]pyridine-5-carboxylic acid (1-ethyl-1H-[1,2,4]triazol-3-yl)-amide] were, in that order, “A” and 1 to 10 nM.
Taken in the same sequence, the figures for `CCn1cnc(NC(=O)c2cc3c(nc2F)nc(C(O)(c2ccccc2F)c2ccccc2F)n3CC)n1` [Compound 91, 2-[bis(2-fluorophenyl)(hydroxy)methyl]-1-ethyl-N-(1-ethyl-1H-1,2,4-triazol-3-yl)-5-fluoro-1H-imidazo[4,5-b]pyridine-6-carboxamide] were “A” and 0.01 to 1 nM.
In the case of `CCn1c(C(O)(c2ccccc2)c2ccccc2)nc2ccc(C(=O)NC[C@@H](C)O)cc21` [Reference Compound, 3-Ethyl-2-[hydroxy(diphenyl)methyl]-N-[(2R)-2-hydroxypropyl]benzimidazole-5-carboxamide, reference compound], the MNT result with CHO-K1 cells was “B”. In addition, the IC50 on ACSS2 was 0.01 to 1 nM.
The like results for `CCc1c(C(O)(c2ccccc2F)c2ccccc2F)nc2cc(OC)c(C(=O)Nc3cnn(CC)c3)cn12` [Compound 30, 2-[Bis-(2-fluoro-phenyl)-hydroxy-methyl]-3-ethyl-7-methoxy-imidazo[1,2-a]pyridine-6-carboxylic acid (1-ethyl-1H-pyrazol-4-yl)-amide] were, in that order, “A” and 1 to 10 nM.
The like results for `CCc1c(C(O)(c2ccccc2)c2ccccc2)nc2cc(F)c(C(=O)Nc3ncn(CC)n3)cn12` [Compound 20, 3-Ethyl-7-fluoro-2-(hydroxy-diphenylmethyl)-imidazo[1,2-a]pyridine-6-carboxylic acid (1-ethyl-1H-[1,2,4]triazol-3-yl)-amide] were, in that order, “A” and 0.01 to 1 nM.
As for `CCc1c(C(O)(c2ccccc2F)c2ccccc2F)nn2cc(C)c(C(=O)Nc3ncn(CC)n3)cc12` [Compound 3, 2-[Bis-(2-fluoro-phenyl)-hydroxy-methyl]-3-ethyl-6-methyl-pyrazolo[1,5-a]pyridine-5-carboxylic acid (1-ethyl-1H-[1,2,4]triazol-3-yl)-amide], the MNT entry in the data set with CHO-K1 cells is “A”. Besides, the IC50 against ACSS2 was 1 to 10 nM.
The like results for `CCc1c(C(O)(c2ccccc2)c2ccccc2)nn2cc(Cl)c(C(=O)Nc3cnn(CC)c3)cc12` [Compound 6, 6-Chloro-3-ethyl-2-(hydroxy-diphenylmethyl)-pyrazolo[1,5-a]pyridine-5-carboxylic acid (1-ethyl-1H-pyrazol-4-yl)-amide] were, in that order, “A” and 1 to 10 nM.
Taken in the same sequence, the figures for `CCc1c(C(O)(c2ccccc2F)c2ccccc2F)nn2cc(Cl)c(C(=O)Nc3ncn(CC)n3)cc12` [Compound 2, 2-[Bis-(2-fluoro-phenyl)-hydroxy-methyl]-6-chloro-3-ethyl-pyrazolo[1,5-a]pyridine-5-carboxylic acid (1-ethyl-1H-[1,2,4]triazol-3-yl)-amide] were “A” and 0.01 to 1 nM.
Taken in the same sequence, the figures for `CCc1c(C(O)(c2ccccc2)c2ccccc2)nn2cc(Cl)c(C(=O)Nc3ncn(CC)n3)cc12` [Compound 1, 6-Chloro-3-ethyl-2-(hydroxy-diphenylmethyl)-pyrazolo[1,5-a]pyridine-5-carboxylic acid (1-ethyl-1H-[1,2,4]triazol-3-yl)-amide] were “A” and 0.01 to 1 nM.
On to `CCc1c(C(O)(c2ccccc2)c2ccccc2)nc2ccc(C(=O)Nc3cnn(CC)c3)cn12` [Compound 13, 3-Ethyl-2-(hydroxy-diphenyl-methyl)-imidazo[1,2-a]pyridine-6-carboxylic acid (1-ethyl-1H-pyrazol-4-yl)-amide], for which the MNT entry in the data set on CHO-K1 cells is listed as “A”. Besides, the IC50 against ACSS2 fell in the range of 10 to 100 nM.
As to `CCc1c(C(O)(c2ccccc2F)c2ccccc2F)nc2cc(OC)c(C(=O)Nc3ncn(CC)n3)cn12` [Compound 28, 2-[Bis-(2-fluoro-phenyl)-hydroxy-methyl]-3-ethyl-7-methoxy-imidazo[1,2-a]pyridine-6-carboxylic acid (1-ethyl-1H-[1,2,4]triazol-3-yl)-amide], the MNT result in the data set with CHO-K1 cells is recorded as “A”. This compound also showed a half-maximal inhibitory concentration (IC50) against ACSS2 of 0.01 to 1 nM.
For `CCc1c(C(O)(c2ccccc2F)c2ccccc2F)nn2cc(OC)c(C(=O)Nc3cnn(CC)c3)cc12` [Compound 4, 2-[Bis-(2-fluoro-phenyl)-hydroxy-methyl]-3-ethyl-6-methoxy-pyrazolo[1,5-a]pyridine-5-carboxylic acid (1-ethyl-1H-pyrazol-4-yl)-amide], the MNT entry in the data set with CHO-K1 cells is “A”. Moreover, the IC50 against ACSS2 was 1 to 10 nM.
Taken in the same sequence, the figures for `CCn1cc(NC(=O)c2cc3c(nc2Cl)nc(C(O)(c2ccccc2)c2ccccc2)n3CC)cn1` [Compound 98, 5-chloro-1-ethyl-N-(1-ethyl-1H-pyrazol-4-yl)-2-(hydroxydiphenylmethyl)-1H-imidazo[4,5-b]pyridine-6-carboxamide] were “A” and 1 to 10 nM.
Taken in the same sequence, the figures for `CCn1cnc(NC(=O)c2cc3c(nc2OC)nc(C(O)(c2ccccc2F)c2ccc(OC(F)F)cc2F)n3CC)n1` (racemic) [Compound 94, 2-{[4-(difluoromethoxy)-2-fluorophenyl](2-fluorophenyl)hydroxymethyl}-1-ethyl-N-(1-ethyl-1H-1,2,4-triazol-3-yl)-5-methoxy-1H-imidazo[4,5-b]pyridine-6-carboxamide] were “A” and 1 to 10 nM.
Taken in the same sequence, the figures for `CCn1cc(NC(=O)c2cc3c(nc2F)nc(C(O)(c2ccccc2F)c2ccccc2F)n3CC)cn1` [Compound 90, 2-[bis(2-fluorophenyl)(hydroxy)methyl]-1-ethyl-N-(1-ethyl-1H-pyrazol-4-yl)-5-fluoro-1H-imidazo[4,5-b]pyridine-6-carboxamide] were “A” and 1 to 10 nM.
Take `CCc1c(C(O)(c2ccccc2)c2ccccc2)nc2cc(OC)c(C(=O)Nc3ncn(CC)n3)cn12` [Compound 24, 3-Ethyl-2-(hydroxy-diphenyl-methyl)-7-methoxy-imidazo[1,2-a]pyridine-6-carboxylic acid (1-ethyl-1H-[1,2,4]triazol-3-yl)-amide]: the MNT result in the data set with CHO-K1 cells was “A”. At ACSS2, the IC50 fell in the range of 0.01 to 1 nM.
The like results for `CCc1c(C(O)(c2ccccc2)c2ccccc2)nn2ccc(C(=O)Nc3ncn(CC)n3)cc12` [Compound 9, 3-Ethyl-2-(hydroxy-diphenyl-methyl)-pyrazolo[1,5-a]pyridine-5-carboxylic acid (1-ethyl-1H-[1,2,4]triazol-3-yl)-amide] were, in that order, “B” and 0.01 to 1 nM.
For the compound `CCn1cnc(NC(=O)c2cc3c(nc2OC)nc(C(O)(c2ccccc2)c2ccccn2)n3CC)n1` (single isomer, unassigned) [Compound 53, 1-ethyl-N-(1-ethyl-1H-1,2,4-triazol-3-yl)-2-[hydroxy(phenyl)(pyridin-2-yl)methyl]-5-methoxy-1H-imidazo[4,5-b]pyridine-6-carboxamide], the MNT entry in the data set with CHO-K1 cells is on record as “in-conclusive”. For the same compound, the IC50 against ACSS2 was in the range of 0.01 to 1 nM.
